# Tests used:
# TvVip2 [1] = molecular target: T1, TvVip2 (Trichoderma virens, UniProt G9N0G3); experiment: X-ray crystal structure, […] Å; assay type: binding; conditions: active site, anaerobic
# T1 sequence (G9N0G3 32-328): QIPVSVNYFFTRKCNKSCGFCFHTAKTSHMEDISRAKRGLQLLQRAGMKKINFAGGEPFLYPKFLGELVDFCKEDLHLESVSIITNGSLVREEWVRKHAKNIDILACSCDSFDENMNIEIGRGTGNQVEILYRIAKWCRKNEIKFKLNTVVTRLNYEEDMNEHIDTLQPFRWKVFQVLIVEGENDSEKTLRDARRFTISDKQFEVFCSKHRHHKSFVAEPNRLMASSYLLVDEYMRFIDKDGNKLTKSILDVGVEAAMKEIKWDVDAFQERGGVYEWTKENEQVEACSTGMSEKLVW
# TvVip2 [2] = molecular target: TvVip2 (Trichoderma virens, UniProt G9N0G3, F40H); experiment: X-ray crystal structure, […] Å; assay type: binding; conditions: active site, anaerobic
# TvVip1 [3] = molecular target: T2, TvVip1 (Trichoderma virens, UniProt G9MQB8); experiment: competition: loss of deu-5'-dA formation from […] deuterated NTP, LC-MS; assay type: biochemical
# TvVip1 CTP-swap V2 [4] = molecular target: T3, TvVip1 CTP-swap V2 (Trichoderma virens, UniProt Z9USF9BXN2); experiment: competition: deu-5'-dA formation by LC-MS, Cheng-Prusoff from IC50 and Km; assay type: biochemical; conditions: calculated from average IC50 and Km; competitive assumption; 1 mM deuUTP, 1 mM SAM, 10 μM enzyme, dithionite, HEPES pH 7.5
# T3 sequence (Z9USF9BXN2 24-317): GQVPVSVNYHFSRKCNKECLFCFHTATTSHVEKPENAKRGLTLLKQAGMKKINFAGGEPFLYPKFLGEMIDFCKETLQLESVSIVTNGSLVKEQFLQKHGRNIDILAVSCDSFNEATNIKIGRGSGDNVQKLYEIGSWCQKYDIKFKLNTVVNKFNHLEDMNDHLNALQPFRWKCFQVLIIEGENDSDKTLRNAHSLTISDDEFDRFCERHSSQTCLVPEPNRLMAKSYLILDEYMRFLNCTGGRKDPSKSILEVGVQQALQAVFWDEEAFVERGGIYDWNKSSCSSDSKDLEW
# TvVip1 [5] = molecular target: T2, TvVip1; experiment: as above; assay type: biochemical; conditions: calculated from average IC50 and Km; competitive assumption; 1 mM deuUTP, 1 mM SAM, 10 μM enzyme, dithionite, HEPES pH 7.5
# TvVip1 CTP-swap V2 [6] = molecular target: T3, TvVip1 CTP-swap V2; experiment: as above; assay type: biochemical; conditions: calculated from average IC50 and Km; competitive assumption; 1 mM deuCTP, 1 mM SAM, 10 μM enzyme, dithionite, HEPES pH 7.5
Compound,"X-ray crystal structure, 1.5 Å (TvVip2 [1]; with CTP and [4Fe-4S])","X-ray crystal structure, 2.3 Å (TvVip2 [2]; with CTP and [4Fe-4S])","X-ray crystal structure, 1.5 Å (TvVip2 [1]; with SAM and [4Fe-4S])",IC50 (TvVip1 [3]),Ki (CTP) (TvVip1 CTP-swap V2 [4]),"X-ray crystal structure, 2.3 Å (TvVip2 [2]; with SAM and [4Fe-4S])",Ki (CTP) (TvVip1 [5]),Ki (UTP) (TvVip1 CTP-swap V2 [6])
C[S+](CC[C@H](N)C(=O)O)C[C@H]1O[C@@H](n2cnc3c(N)ncnc32)[C@H](O)[C@@H]1O (stereo partly drawn) [SAM],"contain strong electron density representing the radical SAM [4Fe-4S] cluster, SAM, and CTP",TvVip2 F40H (PDB: 9DFU) in the presence of CTP and SAM,–,–,–,–,–,–
Nc1ccn([C@@H]2O[C@H](COP(=O)(O)OP(=O)(O)OP(=O)(O)O)[C@@H](O)[C@H]2O)c(=O)n1 [CTP],–,–,"contain strong electron density representing the radical SAM [4Fe-4S] cluster, SAM, and CTP",> 4900 µM,0.22 µM,TvVip2 F40H (PDB: 9DFU) in the presence of CTP and SAM,> 360 µM,–
O=c1ccn([C@@H]2O[C@H](COP(=O)(O)OP(=O)(O)OP(=O)(O)O)[C@@H](O)[C@H]2O)c(=O)[nH]1 [UTP],–,–,–,19 ± 5.7 µM,–,–,–,> 59 µM

# Source: publication PMC13288134 (Structure (London, England : 1993), 2025)
